Measured values reported in ChEMBL document CHEMBL5579901, “Discovery of Novel [1,2,4]Triazolo[1,5-a]pyrimidine Derivatives as Novel Potent S-Phase Kinase-Associated Protein 2 (SKP2) Inhibitors for the Treatment of Cancer” (J Med Chem, 2024).
Active and inactive are the calls of the source. The rule behind the calls is not given here.

Legend:
[1] = target: Cyclin-dependent kinases regulatory subunit 1/S-phase kinase-associated protein 2 (Homo sapiens) (UniProt P61024+Q13309); experiment: Inhibition of GST-tagged SKP2 (unknown origin) binding to His6-tagged CKS1 (unknown origin) at 50 uM preincubated with SKP2 for 10 mins followed by CKS1 addition for 20 mins and measured after by HTRF method relative to control; assay type: protein assay; conditions: time 30.0 min
[2] = target: Cyclin-dependent kinases regulatory subunit 1/S-phase kinase-associated protein 2 (Homo sapiens, UniProt Q13309); experiment: Inhibition of GST-tagged SKP2 (unknown origin) binding to His6-tagged CKS1 (unknown origin) preincubated with SKP2 for 10 mins followed by CKS1 addition for 20 mins and measured after by HTRF method; assay type: protein assay
[3] = target: S-phase kinase-associated protein 2 (Homo sapiens) (UniProt Q13309); experiment: Binding affinity to SKP2 in human MGC-803 cells assessed as increase in thermal stability at 57 to 68 degreeC incubated for 4 hrs by CETSA; assay type: cell-based
MGC-803 [4] = experiment: Inhibition of cell proliferation in human MGC-803 cells incubated for 24 to 72 hrs by MTT assay; assay type: functional, cell-based; conditions: dose 2-50 µM, time 24-72 hrs
PC-3 [5] = experiment: Inhibition of cell proliferation in human PC-3 cells incubated for 24 to 72 hrs by MTT assay; assay type: functional, cell-based; conditions: dose 2-50 µM, time 24-72 hrs
MGC-803 [6] = experiment: Inhibition of cell proliferation in human MGC-803 cells at 2 to 50 uM by MTT assay; assay type: functional, cell-based; conditions: dose 2-50 µM, time 24-72 hrs, TDE = time-dependent effect
PC-3 [7] = experiment: Inhibition of cell proliferation in human PC-3 cells incubated for 72 hrs by MTT assay; assay type: functional, cell-based; conditions: PC-3, 72 h
MGC-803 [8] = experiment: Inhibition of colony formation in human MGC-803 cells at 3 uM incubated for 10 days by crystal violet staining based inverted microscopic analysis; assay type: functional, cell-based; conditions: time 10.0 day
PC-3 [9] = experiment: Inhibition of colony formation in human PC-3 cells at 3 uM incubated for 10 days by crystal violet staining based inverted microscopic analysis; assay type: functional, cell-based; conditions: time 10.0 day
MGC-803 [10] = experiment: Inhibition of cell invasion in human MGC-803 cells incubated for 48 hrs by […]; assay type: functional, cell-based; conditions: dose 2.5-7.5 µM
PC-3 [11] = experiment: Induction of cell cycle arrest in human PC-3 cells assessed as cells at S phase at 5 uM incubated for 36 hrs by PI staining based flow cytometry (reference value: 22.8%); assay type: functional
PC-3 [12] = experiment: Induction of cell cycle arrest in human PC-3 cells assessed as cells at G0/G1 phase at 7.5 uM incubated for 36 hrs by PI staining based flow cytometry (reference value: 54.5%); assay type: functional
PC-3 [13] = experiment: Induction of cell cycle arrest in human PC-3 cells assessed as cells at S phase at 15 uM incubated for 36 hrs by PI staining based flow cytometry (reference value: 22.8%); assay type: functional
MGC-803 [14] = experiment: Induction of cell cycle arrest in human MGC-803 cells assessed as cells at G0/G1 phase at 7.5 uM incubated for 36 hrs by PI staining based flow cytometry (reference value: 57.1%); assay type: functional
MGC-803 [15] = experiment: Induction of cell cycle arrest in human MGC-803 cells assessed as cells at S phase at 15 uM incubated for 36 hrs by PI staining based flow cytometry (reference value: 18.2%); assay type: functional
PC-3 [16] = experiment: Induction of cell cycle arrest in human PC-3 cells assessed as cells at S phase at 15 uM incubated for 6 hrs by PI staining based flow cytometry (reference value: 22.9%); assay type: functional
PC-3 [17] = experiment: Induction of cell cycle arrest in human PC-3 cells assessed as cells at G0/G1 phase at 15 uM incubated for 12 hrs by PI staining based flow cytometry (reference value: 55.1%); assay type: functional
PC-3 [18] = experiment: Induction of cell cycle arrest in human PC-3 cells assessed as cells at G2/M phase at 15 uM incubated for 12 hrs by PI staining based flow cytometry (reference value: 21.4%); assay type: functional
PC-3 [19] = experiment: Induction of cell cycle arrest in human PC-3 cells assessed as cells at G2/M phase at 15 uM incubated for 48 hrs by PI staining based flow cytometry (reference value: 21.4%); assay type: functional
MGC-803 [20] = experiment: Induction of cell cycle arrest in human MGC-803 cells assessed as cells at S phase at 15 uM incubated for 6 hrs by PI staining based flow cytometry (reference value: 19.6%); assay type: functional
MGC-803 [21] = experiment: Induction of cell cycle arrest in human MGC-803 cells assessed as cells at G0/G1 phase at 15 uM incubated for 12 hrs by PI staining based flow cytometry (reference value: 57.9%); assay type: functional
MGC-803 [22] = experiment: Induction of cell cycle arrest in human MGC-803 cells assessed as cells at S phase at 15 uM incubated for 24 hrs by PI staining based flow cytometry (reference value: 19.6%); assay type: functional
MGC-803 [23] = experiment: Downregulation of SKP2 protein level in human MGC-803 cells incubated for 48 hrs by Western blotting analysis; assay type: functional, cell-based; conditions: dose 5-15 µM
PC-3 [24] = experiment: Downregulation of SKP2 protein level in human PC-3 cells incubated for 48 hrs by Western blotting analysis; assay type: functional, cell-based; conditions: dose 5-15 µM
MGC-803 [25] = experiment: Upregulation of p21 protein expression in human MGC-803 cells at 5 to 15 uM incubated for 48 hrs by Western blotting analysis; assay type: functional, cell-based; conditions: dose 5-15 µM
PC-3 [26] = experiment: Upregulation of p21 protein expression in human PC-3 cells at 5 to 15 uM incubated for 48 hrs by Western blotting analysis; assay type: functional, cell-based; conditions: dose 5-15 µM
PC-3 [27] = experiment: Upregulation of p27 protein expression in human PC-3 cells at 5 to 15 uM incubated for 48 hrs by Western blotting analysis; assay type: functional, cell-based; conditions: dose 5-15 µM
PC-3 [28] = experiment: Upregulation of p27 protein expression in human PC-3 cells at 15 uM by Western blotting analysis; assay type: functional, cell-based; conditions: time 6-48 hrs, TDE = time-dependent effect
[29] = Toxicity against NOD-SCID mouse assessed as change in liver morphology at 25 to 50 mg/kg, IG administered for 21 days by H and E staining based assay; assay type: organism-based; conditions: in vivo, po, 504 h, dose 25-50 mg/kg, time 21 day
[30] = Toxicity against NOD-SCID mouse assessed as change in heart morphology at 25 to 50 mg/kg, IG administered for 21 days by H and E staining based assay; assay type: organism-based; conditions: in vivo, po, 504 h, dose 25-50 mg/kg, time 21 day
[31] = Toxicity against NOD-SCID mouse assessed as change in spleen morphology at 25 to 50 mg/kg, IG administered for 21 days by H and E staining based assay; assay type: organism-based; conditions: in vivo, po, 504 h, dose 25-50 mg/kg, time 21 day
[32] = Toxicity against NOD-SCID mouse assessed as change in lung morphology at 25 to 50 mg/kg, IG administered for 21 days by H and E staining based assay; assay type: organism-based; conditions: in vivo, po, 504 h, dose 25-50 mg/kg, time 21 day
[33] = Volume of distribution at steady state in Sprague-Dawley rat at 1 mg/kg, iv measured upto 24 hrs by LC/MS-MS analysis; assay type: ADME, organism-based; conditions: in vivo
[34] = MRT(infinity) in Sprague-Dawley rat at 1 mg/kg, iv measured upto 24 hrs by LC/MS-MS analysis; assay type: ADME, organism-based; conditions: in vivo
[35] = Half-life in Sprague-Dawley rat at 50 mg/kg, po measured upto 24 hrs by LC/MS-MS analysis; assay type: ADME, organism-based; conditions: in vivo
[36] = MRT(infinity) in Sprague-Dawley rat at 50 mg/kg, po measured upto 24 hrs by LC/MS-MS analysis; assay type: ADME, organism-based; conditions: in vivo

S-phase kinase-associated protein 2 (Homo sapiens), sequence (Q13309 whole entry): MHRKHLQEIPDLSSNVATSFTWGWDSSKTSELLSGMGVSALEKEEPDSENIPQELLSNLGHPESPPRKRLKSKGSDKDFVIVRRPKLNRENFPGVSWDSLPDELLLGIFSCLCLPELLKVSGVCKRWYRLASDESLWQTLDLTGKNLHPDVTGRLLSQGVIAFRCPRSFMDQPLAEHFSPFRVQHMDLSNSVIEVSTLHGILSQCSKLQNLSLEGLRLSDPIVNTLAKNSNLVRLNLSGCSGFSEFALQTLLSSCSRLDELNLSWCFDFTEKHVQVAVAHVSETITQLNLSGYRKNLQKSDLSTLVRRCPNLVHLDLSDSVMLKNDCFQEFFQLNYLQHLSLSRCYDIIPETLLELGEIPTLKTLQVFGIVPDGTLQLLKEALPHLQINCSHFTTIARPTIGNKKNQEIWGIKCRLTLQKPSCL
Cyclin-dependent kinases regulatory subunit 1/S-phase kinase-associated protein 2, sequence (P61024 whole entry): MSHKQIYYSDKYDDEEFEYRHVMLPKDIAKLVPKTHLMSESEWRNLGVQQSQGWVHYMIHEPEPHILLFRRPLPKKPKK
Cyclin-dependent kinases regulatory subunit 1/S-phase kinase-associated protein 2, sequence (Q13309 whole entry): as the sequence (Q13309 whole entry) above
Cyclin-dependent kinases regulatory subunit 1/S-phase kinase-associated protein 2 (Homo sapiens), sequence (P61024 2-79 limits assumed): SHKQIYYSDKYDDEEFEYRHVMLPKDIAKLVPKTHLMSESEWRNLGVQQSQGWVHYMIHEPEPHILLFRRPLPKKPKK
Cyclin-dependent kinases regulatory subunit 1/S-phase kinase-associated protein 2 (Homo sapiens), sequence (Q13309 whole entry partner): as the sequence (Q13309 whole entry) above

## COc1ccc(-c2cc(C)nc3nc(SCc4ccc(Br)cc4)nn23)c(OC)c1
[1]
  inhibition: 73.7%
[2]
  IC50: 4.86 µM
[3]
  Activity: Active
MGC-803 [4]
  inhibition: Dose-Dependent Effect
PC-3 [5]
  inhibition: Dose-Dependent Effect
MGC-803 [6]
  inhibition: Tde
PC-3 [7]
  IC50: 11.7 µM
MGC-803 [8]
  inhibition: Active
PC-3 [9]
  inhibition: Active
MGC-803 [10]
  inhibition: Dose-Dependent Effect
PC-3 [11]
  Activity: 28.1%
PC-3 [12]
  Activity: 39%
PC-3 [13]
  Activity: 44.3%
MGC-803 [14]
  Activity: 45.1%
MGC-803 [15]
  Activity: 44.3%
PC-3 [16]
  Activity: 26.7%
PC-3 [17]
  Activity: 48.3%
PC-3 [18]
  Activity: 18.5%
PC-3 [19]
  Activity: 22.5%
MGC-803 [20]
  Activity: 26.8%
MGC-803 [21]
  Activity: 44%
MGC-803 [22]
  Activity: 38.9%
MGC-803 [23]
  Activity: Dose-Dependent Effect
PC-3 [24]
  Activity: Dose-Dependent Effect
MGC-803 [25]
  Activity: Active
PC-3 [26]
  Activity: Active
PC-3 [27]
  Activity: Active
PC-3 [28]
  Activity: Tde
[29]
  Activity: Non-Toxic
[30]
  Activity: Non-Toxic
[31]
  Activity: Non-Toxic
[32]
  Activity: Non-Toxic
[33]
  Vdss: 8.87 L/kg
[34]
  MRT: 6.28 h
[35]
  half-life: 9.1 h
[36]
  MRT inf: 10.2 h
